Patent EP4745153A1, “GLP-1, GIP AND GCG RECEPTOR […] USE THEREOF” (Jiangsu Hengrui Pharmaceuticals Co., Ltd., priority 2023, dated 2025)
Where two headings read alike, the source gives them in different places. Starred links: 1 amine or outer side, 2 acyl side, 3 side chain; linkers in the order of their positions; H or OH if unused. Non-standard residues stand in square brackets, D forms with d. Residues, ends and D or L forms follow the SMILES beside them. Groups on a side chain read outwards from the residue. No end group written: not given here. ξ: configuration not given here. *: point of attachment. C20 diacid = O=C(O)CCCCCCCCCCCCCCCCCCC(=O)*; γGlu = O=C(O)[C@H](CCC(=O)[*:2])N[*:1]; αMeK = C[C@](N)(CCCCN)C(=O)O; ξIva = CCC(C)(N)C(=O)O; AEEA = NCCOCCOCC(=O)O; Aib = CC(C)(N)C(=O)O

B1: Compound No. 0114 (peptide)
peptide: Y[Aib]QGTFTSDYS[αMeK]LLEK([AEEA-AEEA-γGlu-C20 diacid])KAAQEFVEWLLAGGPSSGAPPPS-NH2
modifications: N-terminus assumed
SMILES: CC(C)C[C@H](NC(=O)[C@H](CC(C)C)NC(=O)[C@H](Cc1c[nH]c2ccccc12)NC(=O)[C@H](CCC(=O)O)NC(=O)[C@@H](NC(=O)[C@H](Cc1ccccc1)NC(=O)[C@H](CCC(=O)O)NC(=O)[C@H](CCC(N)=O)NC(=O)[C@H](C)NC(=O)[C@H](C)NC(=O)[C@H](CCCCN)NC(=O)[C@H](CCCCNC(=O)COCCOCCNC(=O)COCCOCCNC(=O)CC[C@H](NC(=O)CCCCCCCCCCCCCCCCCCC(=O)O)C(=O)O)NC(=O)[C@H](CCC(=O)O)NC(=O)[C@H](CC(C)C)NC(=O)[C@H](CC(C)C)NC(=O)[C@](C)(CCCCN)NC(=O)[C@H](CO)NC(=O)[C@H](Cc1ccc(O)cc1)NC(=O)[C@H](CC(=O)O)NC(=O)[C@H](CO)NC(=O)[C@@H](NC(=O)[C@H](Cc1ccccc1)NC(=O)[C@@H](NC(=O)CNC(=O)[C@H](CCC(N)=O)NC(=O)C(C)(C)NC(=O)[C@@H](N)Cc1ccc(O)cc1)[C@@H](C)O)[C@@H](C)O)C(C)C)C(=O)N[C@@H](C)C(=O)NCC(=O)NCC(=O)N1CCC[C@H]1C(=O)N[C@@H](CO)C(=O)N[C@@H](CO)C(=O)NCC(=O)N[C@@H](C)C(=O)N1CCC[C@H]1C(=O)N1CCC[C@H]1C(=O)N1CCC[C@H]1C(=O)N[C@@H](CO)C(N)=O

Tests used:
human GLP-1R = molecular target: T1, human GLP-1R (Homo sapiens, UniProt P43220); assay: cAMP HTRF agonist activity assay in CHO-K1 cells expressing GLP-1R; type: cell-based; for Activity against human GLP-1R (EC50 nM): 5% FBS, 0.1% Casein
T1 construct: expressed in transfected cells; host or cells: CHO-K1 clonal cell line
T1 sequence (P43220 24-463): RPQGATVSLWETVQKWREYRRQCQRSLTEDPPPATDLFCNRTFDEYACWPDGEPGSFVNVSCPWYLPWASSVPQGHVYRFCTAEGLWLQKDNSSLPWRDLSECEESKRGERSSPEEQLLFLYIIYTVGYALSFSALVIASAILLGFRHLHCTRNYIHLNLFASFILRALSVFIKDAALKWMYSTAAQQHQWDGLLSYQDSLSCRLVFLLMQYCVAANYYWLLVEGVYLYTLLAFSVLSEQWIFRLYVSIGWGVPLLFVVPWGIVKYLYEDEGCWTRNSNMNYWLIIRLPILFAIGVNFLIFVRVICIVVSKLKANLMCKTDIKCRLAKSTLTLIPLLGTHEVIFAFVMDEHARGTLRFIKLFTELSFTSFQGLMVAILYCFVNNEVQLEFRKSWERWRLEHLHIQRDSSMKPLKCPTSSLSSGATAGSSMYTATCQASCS
Method: (§1) Functional activity was determined in CHO-K1 clonal cell lines expressing GIPR, GLP-1R, and GCGR. […] Each recipient cell (5000 cells/well) was added to an SV 96-well plate (Cisbio, 66PL96025) and incubated with the prepared polypeptide at 37°Cfor 30 min. The resulting increase in intracellular cAMP was quantitatively measured using the cAMP-GS dynamic HTRF assay kit (Cisbio, 62AM4PEJ). Briefly, the intracellular cAMP levels were determined by adding cAMP-d2 conjugate in cell lysis buffer, followed by the antibody anti-cAMP-Eu cryptate (also in cell lysis buffer).
(§2) Using the maximum response percentage vs. the added polypeptide concentration, the relative EC50 values were derived through nonlinear regression analysis and fitted to a four-parameter logarithmic equation. For specific data, refer to Tables 7-1 to 7-8 below. […]

human GIPR = molecular target: T2, human GIPR (Homo sapiens, UniProt P48546); assay: cAMP HTRF agonist activity assay in CHO-K1 cells expressing GIPR; type: cell-based; for Activity against human GIPR (EC50 nM): 5% FBS, 0.1% Casein
T2 construct: expressed in transfected cells; host or cells: CHO-K1 clonal cell line
T2 sequence (P48546 22-466): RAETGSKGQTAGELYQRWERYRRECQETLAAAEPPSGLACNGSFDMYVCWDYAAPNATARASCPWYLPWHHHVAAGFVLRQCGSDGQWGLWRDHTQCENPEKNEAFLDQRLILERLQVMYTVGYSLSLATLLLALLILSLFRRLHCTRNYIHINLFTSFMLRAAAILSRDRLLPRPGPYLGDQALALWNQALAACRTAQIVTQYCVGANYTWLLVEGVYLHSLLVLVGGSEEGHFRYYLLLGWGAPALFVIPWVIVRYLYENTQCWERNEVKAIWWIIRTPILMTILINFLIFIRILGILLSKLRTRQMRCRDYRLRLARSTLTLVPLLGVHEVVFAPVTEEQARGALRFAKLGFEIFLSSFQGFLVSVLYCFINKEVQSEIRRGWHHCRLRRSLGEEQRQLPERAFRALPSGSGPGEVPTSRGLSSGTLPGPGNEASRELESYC
Outline: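 cAMP accumulation measured by competitive HTRF after 30 min incubation of polypeptides with 5000 receptor-expressing CHO-K1 cells/well at 37°C. Percent of maximal response versus concentration fitted to a four-parameter logistic to give relative EC50.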

human GCGR = molecular target: T3, human GCGR (Homo sapiens, UniProt P47871); assay: cAMP HTRF agonist activity assay in CHO-K1 cells expressing GCGR; type: cell-based; for Activity against human GCGR (EC50 nM): 5% FBS, 0.1% Casein
T3 construct: expressed in transfected cells; host or cells: CHO-K1 clonal cell line
T3 sequence (P47871 26-477): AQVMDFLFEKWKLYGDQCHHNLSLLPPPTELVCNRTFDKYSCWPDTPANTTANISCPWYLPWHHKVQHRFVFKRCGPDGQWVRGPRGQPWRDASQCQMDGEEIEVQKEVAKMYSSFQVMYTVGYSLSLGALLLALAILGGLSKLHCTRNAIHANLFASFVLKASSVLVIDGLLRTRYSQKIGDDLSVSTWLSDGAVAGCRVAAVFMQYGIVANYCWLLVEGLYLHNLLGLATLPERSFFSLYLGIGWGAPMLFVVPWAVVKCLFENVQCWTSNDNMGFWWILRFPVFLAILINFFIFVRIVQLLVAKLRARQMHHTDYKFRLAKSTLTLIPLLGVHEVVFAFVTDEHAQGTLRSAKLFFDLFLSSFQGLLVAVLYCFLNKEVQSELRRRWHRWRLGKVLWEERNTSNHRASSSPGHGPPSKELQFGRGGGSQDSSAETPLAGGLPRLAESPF
Method: as §1, §2

[1] = Pharmacokinetics in mice after single intravenous injection; design: species or system C57 mice; conditions: mouse, in vivo, male C57 mice, single intravenous dose 200 nmol/kg, plasma; for clearance: read-out: CLp; for half-life: read-out: T1/2 (converted)
Outline: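 Plasma concentrations were measured by positive-mode ESI LC-MS/MRM, with verapamil as internal standard, at time points from 5 min to 72 h. Samples came from three male C57 mice per compound, aged 4-6 weeks, dosed once intravenously with 200 nmol/kg in 1×PBS; PK parameters were derived with PKSolver.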

[2] = molecular target: T4, human glucose-dependent insulinotropic polypeptide receptor (human, UniProt P48546 22-466); assay: cell-based or functional assay
T4 sequence (looked up): T2 sequence (P48546 22-466)

[3] = read-out: Activity against human GLP-1R (EC50 nM)
[4] = read-out: Activity against human GIPR (EC50 nM)
[5] = read-out: Activity against human GCGR (EC50 nM)

| Molecule | EC50 (human GLP-1R; [3]) [nM] | EC50 (human GIPR; [4]) [nM] | EC50 (human GCGR; [5]) [nM] | EC50 (human GLP-1R) [nM] | EC50 (human GIPR) [nM] | EC50 (human GCGR) [nM] | AUC(0-inf) [1] [µM·h] | C0 [1] [µM] | clearance [1] [mL/min/kg] | half-life [1] [h] | Activity against human GIPR (EC50 nM) [2] [nM] |
| --- | --- | --- | --- | --- | --- | --- | --- | --- | --- | --- | --- |
| CC[C@H](C)[C@H](NC(=O)[C@H](CO)NC(=O)[C@H](Cc1ccc(O)cc1)NC(=O)[C@H](CC(=O)O)NC(=O)[C@H](CO)NC(=O)[C@@H](NC(=O)[C@H](Cc1ccccc1)NC(=O)[C@@H](NC(=O)CNC(=O)[C@H](Cc1c[nH]cn1)NC(=O)C(C)(C)NC(=O)[C@@H](N)Cc1c[nH]cn1)[C@@H](C)O)[C@@H](C)O)C(=O)N[C@@H](CC(C)C)C(=O)N[C@@H](CC(C)C)C(=O)N[C@@H](CCC(=O)O)C(=O)N[C@@H](CCCCNC(=O)COCCOCCNC(=O)COCCOCCNC(=O)CC[C@H](NC(=O)CCCCCCCCCCCCCCCCCCC(=O)O)C(=O)O)C(=O)N[C@@H](CCCCN)C(=O)N[C@@H](C)C(=O)N[C@@H](C)C(=O)NC(C)(CC)C(=O)N[C@@H](CCC(=O)O)C(=O)N[C@@H](Cc1ccccc1)C(=O)N[C@H](C(=O)N[C@@H](CCC(=O)O)C(=O)N[C@@H](Cc1c[nH]c2ccccc12)C(=O)N[C@@H](CC(C)C)C(=O)N[C@@H](CC(C)C)C(=O)N[C@@H](C)C(=O)NCC(=O)NCC(=O)N1CCC[C@H]1C(=O)N[C@@H](CO)C(=O)N[C@@H](CO)C(=O)NCC(=O)N[C@@H](C)C(=O)N1CCC[C@H]1C(=O)N1CCC[C@H]1C(=O)N1CCC[C@H]1C(=O)N[C@@H](CO)C(N)=O)C(C)C (some centres unmarked) [Compound 0135] | 0.013 | 0.001 | 0.019 | – | – | – | – | – | – | – | – |
| CC[C@H](C)[C@H](NC(=O)[C@](C)(CCCCN)NC(=O)[C@H](CO)NC(=O)[C@H](Cc1ccc(O)cc1)NC(=O)[C@H](CC(=O)O)NC(=O)[C@H](CO)NC(=O)[C@@H](NC(=O)[C@H](Cc1ccccc1)NC(=O)[C@@H](NC(=O)CNC(=O)[C@H](Cc1c[nH]cn1)NC(=O)C(C)(C)NC(=O)[C@@H](N)Cc1c[nH]cn1)[C@@H](C)O)[C@@H](C)O)C(=O)N[C@@H](CC(C)C)C(=O)N[C@@H](CCC(=O)O)C(=O)N[C@@H](CCCCNC(=O)COCCOCCNC(=O)COCCOCCNC(=O)CC[C@H](NC(=O)CCCCCCCCCCCCCCCCCCC(=O)O)C(=O)O)C(=O)N[C@@H](CCCCN)C(=O)N[C@@H](C)C(=O)N[C@@H](C)C(=O)N[C@@H](CCC(N)=O)C(=O)N[C@@H](CCC(=O)O)C(=O)N[C@@H](Cc1ccccc1)C(=O)N[C@H](C(=O)N[C@@H](CCC(=O)O)C(=O)N[C@@H](Cc1c[nH]c2ccccc12)C(=O)N[C@@H](CC(C)C)C(=O)N[C@@H](CC(C)C)C(=O)N[C@@H](C)C(=O)NCC(=O)NCC(=O)N1CCC[C@H]1C(=O)N[C@@H](CO)C(=O)N[C@@H](CO)C(=O)NCC(=O)N[C@@H](C)C(=O)N1CCC[C@H]1C(=O)N1CCC[C@H]1C(=O)N1CCC[C@H]1C(=O)N[C@@H](CO)C(N)=O)C(C)C [Compound 0119] (H-H[Aib]HGTFTSDYS[αMeK]ILEK([AEEA-AEEA-γGlu-C20 diacid])KAAQEFVEWLLAGGPSSGAPPPS-NH2) | – | – | – | 0.023 | 0.005 | 0.087 | 55.9 | 6.17 | 0.058 | 13 | – |
| CC[C@H](C)[C@H](NC(=O)[C@H](CC(C)C)NC(=O)[C@H](Cc1c[nH]c2ccccc12)NC(=O)[C@H](CCC(=O)O)NC(=O)[C@@H](NC(=O)[C@H](Cc1ccccc1)NC(=O)[C@H](CCC(=O)O)NC(=O)C(C)(CC)NC(=O)[C@H](C)NC(=O)[C@H](C)NC(=O)[C@H](CCCCN)NC(=O)[C@H](CCCCNC(=O)COCCOCCNC(=O)COCCOCCNC(=O)CC[C@H](NC(=O)CCCCCCCCCCCCCCCCCCC(=O)O)C(=O)O)NC(=O)[C@H](CCC(=O)O)NC(=O)[C@H](CC(C)C)NC(=O)[C@H](CC(C)C)NC(=O)[C@](C)(CCCCN)NC(=O)[C@H](CO)NC(=O)[C@H](CC(C)C)NC(=O)[C@H](CC(=O)O)NC(=O)[C@H](CO)NC(=O)[C@@H](NC(=O)[C@H](Cc1ccccc1)NC(=O)[C@@H](NC(=O)CNC(=O)[C@H](Cc1c[nH]cn1)NC(=O)C(C)(C)NC(=O)[C@@H](N)Cc1c[nH]cn1)[C@@H](C)O)[C@@H](C)O)C(C)C)C(=O)N[C@@H](CCC(=O)O)C(=O)NCC(=O)NCC(=O)N1CCC[C@H]1C(=O)N[C@@H](CO)C(=O)N[C@@H](CO)C(=O)NCC(=O)N[C@@H](C)C(=O)N1CCC[C@H]1C(=O)N1CCC[C@H]1C(=O)N1CCC[C@H]1C(=O)N[C@@H](CO)C(N)=O (some centres unmarked) [Compound 0133] (H-H[Aib]HGTFTSDLS[αMeK]LLEK([AEEA-AEEA-γGlu-C20 diacid])KAA[ξIva]EFVEWLIEGGPSSGAPPPS-NH2) | 0.016 | 0.002 | 0.03 | – | – | – | – | – | – | – | – |
| CC[C@H](C)[C@H](NC(=O)[C@H](CO)NC(=O)[C@H](CC(C)C)NC(=O)[C@H](CC(=O)O)NC(=O)[C@H](CO)NC(=O)[C@@H](NC(=O)[C@H](Cc1ccccc1)NC(=O)[C@@H](NC(=O)CNC(=O)[C@H](Cc1c[nH]cn1)NC(=O)C(C)(C)NC(=O)[C@@H](N)Cc1c[nH]cn1)[C@@H](C)O)[C@@H](C)O)C(=O)N[C@@](C)(CC(C)C)C(=O)N[C@@H](CC(C)C)C(=O)N[C@@H](CCC(=O)O)C(=O)N[C@@H](CCCCNC(=O)COCCOCCNC(=O)COCCOCCNC(=O)CC[C@H](NC(=O)CCCCCCCCCCCCCCCCCCC(=O)O)C(=O)O)C(=O)N[C@@H](CCCCN)C(=O)N[C@@H](C)C(=O)N[C@@H](C)C(=O)NC(C)(CC)C(=O)N[C@@H](CCC(=O)O)C(=O)N[C@@H](Cc1ccccc1)C(=O)N[C@H](C(=O)N[C@@H](CCC(=O)O)C(=O)N[C@@H](Cc1c[nH]c2ccccc12)C(=O)N[C@@H](CC(C)C)C(=O)N[C@@H](CC(C)C)C(=O)N[C@@H](C)C(=O)NCC(=O)NCC(=O)N1CCC[C@H]1C(=O)N[C@@H](CO)C(=O)N[C@@H](CO)C(=O)NCC(=O)N[C@@H](C)C(=O)N1CCC[C@H]1C(=O)N1CCC[C@H]1C(=O)N1CCC[C@H]1C(=O)N[C@@H](CO)C(N)=O)C(C)C (some centres unmarked) [Compound 0138] | – | – | – | 0.019 | – | 0.055 | 18.5 | 3.28 | 0.181 | 8.2 | – |
| B1 | – | – | – | – | – | – | – | – | – | – | 0.01 |
